Experimental data as given in US20130267547A1, “PRODRUGS UTILIZING A TRANSPORTER-DIRECTED UPTAKE MECHANISM” (VIRGINIA COMMONWEALTH UNIVERSITY, priority 2010, published 2013).
One block for each compound: values may come before it.

Experiments:
BeWo cells [1] = experiment: Uptake of 3H-lopinavir, 3H-succinyl-lopinavir and 3H-carnitine-succinyl-lopinavir by BeWo cells, with and without transport inhibitors; details: for inhibition at 100 µM / inhibition at 250 µM: Homo sapiens, BeWo, read-out: Extent of Uptake Inhibition
Method: FIG. 10. […] BeWo cells (passage 38) were incubated with the compounds for 10 minutes at 37° C. or 4° C. in Dulbecco's phosphate buffered saline containing 0.05% bovine serum albumin. After incubation, the cells were washed with the cold buffer (lacking the compounds), and compounds were extracted from the cells into methanol followed by liquid scintillation analysis.
Specifically, bromosulfophthalein (BSP) is an inhibitor of several organic anion transporters (OATs; gene family SLC22A), as well as organic anion transporting polypeptides (OATPs; gene family SLCO). […] Finally, taurocholate is a classic substrate for bile salt transporters, including the sodium-dependent taurocholate transporter (NTCP; SLC10A1), the apical bile salt transporter (ASBT; SLC10A2), and certain OATPs.
The BeWo cell line is originally derived from a human choriocarcinoma. The BeWo cell line (Schwartz clone; passage 30) was a gift. BeWo cells in these studies is used between passages 30-70. BeWo cells are cultured in high glucose Dulbecco's modified Eagle's medium (DMEM) supplemented with 10% heat inactivated fetal bovine serum (FBS).

[2] = test system: human primary cytotrophoblast cells; experiment: Uptake of 3H-SLPV and 3H-LPV by primary cytotrophoblast cells; type: cell-based
Source text: We also isolated primary cytotrophoblast cells from one term (39 weeks gestation) placenta delivered by cesarean section. […] (FIG. 7).

BeWo cells [3] = experiment: Uptake of non-radiolabelled LPV esters in BeWo cells (LC-MS/MS); type: cell-based, human; details: for Rank order of uptake: non-radiolabelled esters
Method: (§1) NMR spectroscopy was performed on the compounds including GLPV (FIG. 14A). […] An LC-MS/MS assay was developed and validated to determine concentrations of the novel compounds in biological matrices and fluids, as shown in FIG. 14B.

plasma esterases = experiment: Stability in human plasma; type: in vitro ADME
Method: The stability of SLPV was determined by incubating SLPV (20 μM) in human plasma from one healthy adult at 37° C. for 18 hours.

P-glycoprotein = details: mice; cited from earlier work
[4] = test system: fresh human placental villous tissue; experiment: Incubation of DGLPV with fresh human placental villous tissue (HPLC of medium and tissue); type: in vitro ADME
Method: DGLPV was synthesized as described above. The amount of DGLPV in the media originally containing 100 uM DGLPV was measured using HPLC as described above, and again after a 30 minute incubation with fresh human placental villous tissue in the same media.
To confirm that the DGLPV was taken up by the tissue and hydrolyzed therein, HPLC was used to measure the amount of free LPV present in the tissue.

[5] = Hydrolysis of LPV esters in vivo in rats
Method: as §1

SMILES: Cc1cccc(C)c1OCC(=O)N[C@@H](Cc1ccccc1)[C@@H](O)C[C@H](Cc1ccccc1)NC(=O)[C@H](C(C)C)N1CCCNC1=O [LPV, lopinavir, reference compound]
Extent of Uptake Inhibition (BeWo cells [1]; Cold (4° C.), BeWo cells): 10% | inhibition at 100 µM (BeWo cells [1]): 9% | inhibition at 250 µM (BeWo cells [1]): 7%

Temperature dependence of uptake, in words ([2]; 4° C. vs 37° C., cytotrophoblasts): temperature-dependent | Uptake relative to uptake of LPV ([2]; human placental cytotrophoblasts, 37° C., after 24 hrs in culture): 10 fold | Effect of ABC transporter inhibitor MK571 on uptake, in words (BeWo cells [1]): slight increase in uptake | Effect of arachidonic acid on uptake, in words (BeWo cells [1]): no effect | Temperature dependence of uptake, in words (BeWo cells [1]): inhibited at reduced temperatures | Temperature dependence of uptake, in words (BeWo cells [1]; human, 10 minutes): significantly less than at 37 °C | Temperature dependence of uptake, in words (BeWo cells [3]): temperature dependent | Rank order of uptake (BeWo cells [3]): GLPV>SLPV>DGLPV | Stability in human plasma, in words (plasma esterases; 20 μM, human plasma from one healthy adult, 37° C., 18 hours): completely stable to plasma esterases
SMILES: Cc1cccc(C)c1OCC(=O)NC(Cc1ccccc1)[C@H](CC(Cc1ccccc1)NC(=O)[C@H](C(C)C)N1CCCNC1=O)OC(=O)CCC(=O)O (some centres unmarked) [SLPV, Succinyl-lopinavir]
Extent of Uptake Inhibition (BeWo cells [1]; Cold (4° C.), BeWo cells): 62% | inhibition at 100 µM (BeWo cells [1]): -1% | inhibition at 250 µM (BeWo cells [1]): 7% | Extent of Uptake Inhibition (BeWo cells [1]; linoleic acid (40 mM), BeWo cells): 40% | Extent of Uptake Inhibition (BeWo cells [1]; valproic acid (1 mM), BeWo cells): 5%

SMILES: CC(=O)O[C@H]1C(=O)[C@@]2(C)[C@H]([C@H](OC(=O)c3ccccc3)[C@]3(O)C[C@H](OC(=O)[C@H](O)[C@@H](NC(=O)c4ccccc4)c4ccccc4)C(C)=C1C3(C)C)[C@]1(OC(C)=O)CO[C@@H]1C[C@@H]2O [paclitaxel]
Fold more drug entering P-glycoprotein deficient Abcb1a−/−/1b−/− fetuses than wild type fetuses (P-glycoprotein): 16 fold

Amount of DGLPV in the medium after incubation with tissue ([4]; 100 uM DGLPV, 30 minute incubation): decrease in DGLPV in the medium | Hydrolysis in the tissue to release free lopinavir, in words ([4]; human placental villous tissue): can also be hydrolyzed in the tissue | Temperature dependence of uptake, in words (BeWo cells [3]): temperature dependent | Rank order of uptake (BeWo cells [3]): GLPV>SLPV>DGLPV | Hydrolysis in vivo, in words [5]: capable of being hydrolyzed in vivo | half-life (plasma esterases; human, plasma, preliminary data, read-out: Plasma hydrolysis half-life (converted)): ~2 h
SMILES: Cc1cccc(C)c1OCC(=O)NC(Cc1ccccc1)[C@H](CC(Cc1ccccc1)NC(=O)[C@H](C(C)C)N1CCCNC1=O)OC(=O)COCC(=O)O (some centres unmarked) [DGLPV, Diglycolic-Lopinavir]
Transport into human tissues, in words ([4]; human placental villous tissue): can also be transported into human tissues

SMILES: Cc1cccc(C)c1OCC(=O)NC(Cc1ccccc1)C(CC(Cc1ccccc1)NC(=O)C(C(C)C)N1CCCNC1=O)OC(=O)CCC(=O)O (centres unmarked) [SLPV, Succinyl-lopinavir]
Reduction of uptake in the presence of linoleic acid (BeWo cells [1]; 40 μM linoleic acid (LA), BeWo cells, p<0.05): 34%
